In patent US6689813B2 (Biostatin Gyogyszerkutato-Fejleszto kft., priority 1998, dated 2004):
Where no end group is shown, it is not given here. [ ]: non-standard residue; d: D form.

Columns and labels:
Wistar rats [1] = test: 1% mustard oil-induced neurogenic inflammation (Evans blue plasma extravasation, foot skin); type: in vivo, rat
Description: Thirty minutes after acute bilateral denervation of the lower limbs (transsection of the saphenous and sciatic nerves), 50 mg/kg of Evans blue dye was administered to the tail vein of nembutal-anaesthetized (pentobarbital, 40 mg/kg i.p.) Wistar rats (150-220 g body weight; 5 to 7 animals in each group). […] The mustard oil induces a so-called neurogenic inflammation by the selective stimulation of the peripheral endings of CSPAN's and by releasing the mediators being present therein (chiefly tachykinins and CGRP); this neurogenic inflammation appears as a vasodilatation in the area of arterioles and in the form of a plasma extravasation at the venular side. Since the dye Evans blue is bound to serum albumin in the vascular bed, its precipitation and accumulation in the upper skin surface of foot are proportional to the extent of plasma extravasation. Thus, the quantitative determination of intensity of the inflammation becomes possible. After the painting with mustard oil, the animals were bled, the foot dorsum skins were cut out and their weights were determined. The amount of dye extracted during 72 hours of incubation in formamide was determined at 620 nm on a spectrophotometer (Spectromon 195). The amount (expressed as μg) of the extravasated Evans blue related to one g of wet tissue was calculated by means of the following formula:
Evans blue (μg/g)=E×V×k/m
E is the light absorption of the solution, V means the volume (ml) of the solution, m is the weight […] of the skin cut out from the foot dorsum skin; and k is a constant determined on the basis of a dilution series, which is characteristic of the dye solution.

[2] = tested on: release of sensory neuropeptides from the trachea of rats; test: In vitro release of sensory neuropeptides (SP, CGRP, SOM) from the trachea of rats, RIA; set-up: species or system rat
Description: After bleeding out, the tracheas of two rats each were removed, placed into an organ bath (1.8 ml) and Krebs solution saturated with oxygen (95% of oxygen and 5% of carbon dioxide) was bubbled through it at 37° C. for 60 minutes (with a rate of 1 ml/min). After stopping the flow, the bath solution was changed 3 times (pre-stimulated—stimulated—post-stimulated) for 8 minutes. The release of sensory neuropeptides from the tissue samples was induced by electric (40 V, 0.1 ms, 10 Hz, 120 s) and chemical (10^−7 M of capsaicin) stimulation, in the presence or absence of TT-232 (200 nM, 500 nM). The fractions were collected in ice-cold tubes; the wet weights of tracheas were measured. The concentrations of substance P (SP), calcitonin gene-related peptide (CGRP) and somatostatin (SOM) were determined by using a specific radioimmunoassay (RIA) developed in our laboratory and expressed as the amount of peptide released from one g of tissue. The limits of measurements were: 2 fmol/tube for SP; 1 fmol/tube for CGRP; and 2 fmol/tube for SOM [Németh, J.: Acta Physiol. Hung. 84, 313-315 (1996); Helyes, Zs.: Br. J. Pharmacol. 121, 613-615 (1997)].

rats = test: Bradykinin-induced non-neurogenic inflammation (Evans blue extravasation) after chronic denervation; type: in vivo, rat
Description: After chronic denervation (see 1.2.1.), each group of 5 rats received various doses (1, 2.5, 5, 10 or 20 μg, respectively, i.v.) of TT-232 and simultaneously Evans blue (50 mg/kg i.v.). Ten minutes later, bradykinin was injected underneath the plantar skin of the lower limbs of the rats. After 15 minutes the animals were bled and the amount of the extravasated Evans blue (expressed as […] related to the wet tissue) was determined as.described above (1.1.).

Wistar rats [3] = test: 0.5% dextran-induced non-neurogenic inflammation (foot swelling, plethysmometer) after chronic denervation; type: in vivo, rat
Description: This test is based on the fact that a non-neurogenic, so-called clearly chemical inflammation can be induced by chemical excitation (e.g. by dextran, carrageenin, formalin) on a chronically denervated body area at least 5 days following the transsection of the nerve. These chemical agents release inflammation-inducing substances (histamine, bradykinin, PAF, prostaglandins and leucotrienes) from immunocytes, chiefly from mast cells.
Dextran solution (0.1 ml, 0.5%) is administered into both feet, underneath the plantar skin of Wistar rats (5 to 7 animals in each group) anaesthetized by nembutal (40 mg/kg i.v.) 5 days after bilateral denervation (transsection of the saphenous and sciatic nerves) of the lower limbs. The pretreated animals received somatostatin (SS), ocreotide or TT-232 (10 μg/kg i.p.) 10 minutes earlier. Before the administration of dextran (0 minute value), then after 10, 20 and 30 minutes, respectively, the swelling of the feet was measured by using a plethysmometer (Ugo Basil). Dextran elicits the so-called clearly chemical inflammation in the feet deprived of nerve supply (innervation) through the transmitters released from the mast cells.
A dose/effect ratio was determined for each substance.

unanaesthetized animals = test: Mechanical nociceptive threshold, Randall-Selitto test after carrageenin; type: in vivo; conditions: 30 minutes after carrageenin
Description: The mechanical nociceptive threshold was investigated by using the Randall-Selitto test (Ugo Basil equipment) on unanaesthetized animals. Before the beginning of the experiment, the animals were tested several times to provide their adaptation to the experimental conditions. The animals received TT-232 in various concentrations (1.25, 2.5, 5, 10 μg i.v.) and after 15 minutes, carrageenin (0.1 ml of 1% solution) was injected into the plantar skin of the lower limbs of the animals.

[4] = capsaicin stimulation, 200 nM TT-232
[5] = capsaicin stimulation, 500 nM TT-232
[6] = electrical stimulation, 500 nm TT-232

D-Phe-Cys-Tyr-D-Trp-Lys-Cys-Thr-NH2 ([dF]CY[dW]KCT-NH2; cysteine pairing not given here) [TT-232]
Decrease % (Evans blue extravasation vs control) (Wistar rats [1]; 20 μg/kg i.p., 1% mustard oil): 63.616%
Evans blue extravasation (Wistar rats [1]; 20 μg/kg i.p., 1% mustard oil on feet, control 169.525): 61.68 µg/g
inhibition of mustard oil-induced neurogenic inflammation (in words) (Wistar rats [1]; 20 μg/kg, 20 minutes after i.p. administration): significantly inhibited
equipotent dose ratio vs somatostatin (times lower dose) (Wistar rats [1]; dose/effect relation, FIG. 2): ~8 times
highest antiinflammatory effect relative to highest effect of somatostatin (Wistar rats [1]; dose/effect relation, FIG. 2): double
inhibition of inflammation (Wistar rats [1]; intravenous dose of 2.5 μg/kg, 2 hours after administration (FIG. 2.a)): 35%
decrease of capsaicin-induced SOM release [2, 4]: 48%
decrease of capsaicin-induced SP release [2, 4]: 44%
inhibition of capsaicin-induced CGRP release [2, 5]: 27%
inhibition of capsaicin-induced SOM release [2, 5]: 74%
inhibition of capsaicin-induced SP release [2, 5]: 79%
inhibition of CGRP release [2, 6]: 48%
inhibition of SOM release [2, 6]: 42%
inhibition of SP release [2, 6]: 36%
amount of SOM released ([2]; electrical stimulation, 500 nm TT-232, without TT-232 0.51 fmol/mg): 0.39 fmol/mg
amount of CGRP released ([2]; electrical stimulation, 500 nm TT-232, without TT-232 0.69 fmol/mg): 0.36 fmol/mg
amount of SP released ([2]; electrical stimulation, 500 nm TT-232, without TT-232 6 fmol/mg): 3.8 fmol/mg
basal, non-stimulated release of the neuropeptides (in words) ([2]; no stimulation): not affected
Evans blue extravasation (rats; TT-232 1 μg/kg i.v., control (buffer) 127.35 ± 7.11): 98.21 ± 7.44 µg/kg
Evans blue extravasation (rats; TT-232 2.5 μg/kg i.v.): 85.02 ± 7.33 µg/kg
Evans blue extravasation (rats; TT-232 5 μg/kg i.v.): 81.95 ± 7.64 µg/kg
Evans blue extravasation (rats; TT-232 10 μg/kg i.v.): 86.31 ± 8.74 µg/kg
Evans blue extravasation (rats; TT-232 20 μg/kg i.v.): 77.4 ± 4.59 µg/kg
prevention of dextran-induced non-neurogenic inflammation (in words) (Wistar rats [3]; 10 μg/kg, even 40 minutes following the pretreatment): significantly prevented
foot swelling % (Wistar rats [3]; Table 2.a, 0.5 μg/kg, 10 minutes): 27.63 ± 3.5%
foot swelling % (Wistar rats [3]; Table 2.a, 0.5 μg/kg, 20 minutes): 39.94 ± 3.07%
foot swelling % (Wistar rats [3]; Table 2.a, 0.5 μg/kg, 30 minutes): 41.33 ± 5.95%
foot swelling % (Wistar rats [3]; Table 2.a, 1.0 μg/kg, 10 minutes): 20.51 ± 2.92%
foot swelling % (Wistar rats [3]; Table 2.a, 1.0 μg/kg, 20 minutes): 38.07 ± 3.12%
foot swelling % (Wistar rats [3]; Table 2.a, 1.0 μg/kg, 30 minutes): 44.32 ± 3.18%
foot swelling % (Wistar rats [3]; Table 2.a, 2.5 μg/kg, 10 minutes): 20.54 ± 5.16%
foot swelling % (Wistar rats [3]; Table 2.a, 2.5 μg/kg, 20 minutes): 33.02 ± 4.46%
foot swelling % (Wistar rats [3]; Table 2.a, 2.5 μg/kg, 30 minutes): 39.59 ± 4.76%
foot swelling % (Wistar rats [3]; Table 2.a, 5.0 μg/kg, 10 minutes): 17.29 ± 3.13%
foot swelling % (Wistar rats [3]; Table 2.a, 5.0 μg/kg, 20 minutes): 27.81 ± 2.39%
foot swelling % (Wistar rats [3]; Table 2.a, 5.0 μg/kg, 30 minutes): 35.95 ± 2.97%
foot swelling % (Wistar rats [3]; Table 2.a, 10 μg/kg, 10 minutes): 17.60 ± 2.05%
foot swelling % (Wistar rats [3]; Table 2.a, 10 μg/kg, 20 minutes): 27.59 ± 2.5%
foot swelling % (Wistar rats [3]; Table 2.a, 10 μg/kg, 30 minutes): 36.40 ± 1.71%
foot swelling % (Wistar rats [3]; Table 2.a, 20 μg/kg, 10 minutes): 19.56 ± 1.71%
foot swelling % (Wistar rats [3]; Table 2.a, 20 μg/kg, 20 minutes): 29.73 ± 1.7%
foot swelling % (Wistar rats [3]; Table 2.a, 20 μg/kg, 30 minutes): 37.67 ± 2.33%
prevention of foot-swelling compared with diclofenac and meloxicam (in words) (Wistar rats [3]; Table 2.a, TT-232 concentration a thousandth part of the others): more effectively
foot swelling % (Wistar rats [3]; Table 2, 10 μg/kg i.p. 10 min before dextran, 10 minutes, control 32.97): 24.4%
foot swelling % (Wistar rats [3]; Table 2, 10 μg/kg i.p. 10 min before dextran, 20 minutes, control 49.695): 34.39%
foot swelling % (Wistar rats [3]; Table 2, 10 μg/kg i.p. 10 min before dextran, 30 minutes, control 56.68): 29.43%
increase in the nociceptive threshold (analgetic effect) (unanaesthetized animals; 1.25 μg i.v.): 30%
increase in the nociceptive threshold (analgetic effect) (unanaesthetized animals; 2.5 μg i.v.): 37%
increase in the nociceptive threshold (analgetic effect) (unanaesthetized animals; 5 μg i.v.): 50%
increase in the nociceptive threshold (analgetic effect) (unanaesthetized animals; 10 μg i.v.): 60%
